Experimental data as given in US10800791B2, “Triazole ACC inhibitors and uses thereof” (Gilead Apollo, LLC, priority 2015, dated 2020).
≈ marks a conversion by molar mass, not a printed value. Where two headings read alike, the source gives them in different places.

What was measured:
human (hACC2) = human (hACC2) (Homo sapiens, UniProt O00763); assay: In vitro ACC inhibition assay (ADP-Glo), hACC2; format: biochemical; conditions: 5 nM ACC2, 20 μM ATP, 20 μM acetyl-CoA
Experimental: The detailed procedure is as follows. […] 10 μL ADP glo reagent was added. […] 20 μL kinase detection reagent was added.

Rhizoctonia solani (Rs) = assay: Growth inhibition assay of fungal pathogens, Rs; format: cell-based; conditions: 48 h
Experimental: Compounds of the present invention were evaluated in a growth inhibition assay to determine the ability to control the growth of fungal pathogens, such as Botrtyis cinerea (Bc), Collectotrichum graminicola (Cg), Diplodia maydis (Dm), Fusarium moniliforme (Fm), Fusarium virguliforme (Fv), Phytophthora capsici (Pc), Rhizoctonia solani (Rs), and Septoria tritici (St).
Compounds to be tested were dissolved in DMSO at 2.5 mg/ml to produce compound stock solutions (“stocks”). Stocks were diluted with DMSO by a five-fold dilution in a 96-well stock plate, and two sets of final concentrations of 50, 10, and 2 ppm or 2, 0.4, and 0.08 ppm were obtained in vitro. A set of positive controls was also prepared, with various concentrations of Soraphen (2, 0.4, and 0.08 ppm), Metalaxyl (1.1, 0.22, and 0.04 ppm), and Metconazole (2, 0.4, and 0.08 ppm or 0.2, 0.04, and 0.008 ppm) after the five-fold dilutions. Negative controls on each plate included 2% DMSO, water, and a blank (media+2% DMSO).
Fungal spores were isolated from previously sub-cultured plates of Botrtyis cinerea (Bc), Collectotrichum graminicola (Cg), Diplodia maydis (Dm), Fusarium moniliforme (Fm), Fusarium virguliforme (Fv), Phytophthora capsici (Pc), and Septoria tritici (St). The isolated spores were diluted to individual concentrations with a 17% V8 liquid media. For Rhizoctonia solani (Rs) and Pythium irregulare, 1.5 mm mycelial plugs were used in place of spores and/4 Potato Dextrose Broth (PDB) was used for dilution. The spore concentrations and plug sizes were based on growth curves generated at 48 hours for each pathogen.
In a second 96-well plate, the spores or mycelial plugs, media, diluted compound solutions, and controls were combined. Once the compound was added, a true final concentration of compound in each well was measured by an OD600 reading, which adjusted for any compound precipitation that might have occurred in the well. Plate readings were repeated at both 24 and 48 hours. The blank negative control was used as a background subtraction. Additional visual ratings were performed at both 24 and 48 hours for checking on precipitation and confirming efficacy. Visual and OD600 ratings of the compounds at 48 hours were compared to the 2% DMSO negative control, and the percent of pathogen growth inhibition was determined based on those values.

C. albicans = assay: Antifungal Activity Assay (broth microtiter MIC), C. albicans; format: cell-based, Candida albicans; conditions: Candida albicans, ATCC90028, 48 h, Table 3b (additional results); ATCC 90028; 3 replicates; MIC recorded at 48 h; read-out: MIC, C. albicans ATCC 90028
Method in brief: (§1)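 MIC read by eye at 48 h, comparing challenged wells with the growth control. Yeasts grown overnight on Sabouraud dextrose agar at 35° C, suspended in RPMI 1640+MOPS and added at 2.5×10^3 CFU/mL final, following CLSI M27-A3.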

C. krusei = assay: Antifungal Activity Assay (broth microtiter MIC), C. krusei; format: cell-based, Candida krusei; conditions: Pichia kudriavzevii, ATCC6258, 48 h, Table 3b (additional results); ATCC 6258; 3 replicates; MIC recorded at 48 h; read-out: MIC, C. krusei ATCC 6258
Method in brief: as §1

fungal (fACC2) = fungal (fACC2) (UniProt Q00955); conditions: read-out: fACC2 (in vitro ACC2 Inhibition Assay, IC50); Table 2b, additional results; ADP-Glo, 5 nM ACC2, 20 μM ATP, 20 μM acetyl-CoA
C. parapsilosis = assay: Antifungal Activity Assay (broth microtiter MIC), C. parapsilosis; format: cell-based, Candida parapsilosis; conditions: Lodderomyces parapsilosis, ATCC22019, 48 h, Table 3b (additional results); ATCC 22019; 3 replicates; MIC recorded at 48 h; read-out: MIC, C. parapsilosis ATCC 22019
Method in brief: as §1

[1] = read-out: Concentration at 90% Inhibition Rs, Rhizoctonia solani, mycelial plugs, growth inhibition at 48 hours vs 2% DMSO control
[2] = read-out: Concentration at 90% Inhibition Rs, Rhizoctonia solani, mycelial plugs, growth inhibition vs 2% DMSO control at 48 hours
[3] = mycelial plugs, growth inhibition at 48 hours vs 2% DMSO control, read-out: Concentration at 90% Inhibition Rs
[4] = mycelial plugs, growth inhibition vs 2% DMSO control at 48 hours, read-out: Concentration at 90% Inhibition Rs

human (hACC2), sequence (O00763 whole entry): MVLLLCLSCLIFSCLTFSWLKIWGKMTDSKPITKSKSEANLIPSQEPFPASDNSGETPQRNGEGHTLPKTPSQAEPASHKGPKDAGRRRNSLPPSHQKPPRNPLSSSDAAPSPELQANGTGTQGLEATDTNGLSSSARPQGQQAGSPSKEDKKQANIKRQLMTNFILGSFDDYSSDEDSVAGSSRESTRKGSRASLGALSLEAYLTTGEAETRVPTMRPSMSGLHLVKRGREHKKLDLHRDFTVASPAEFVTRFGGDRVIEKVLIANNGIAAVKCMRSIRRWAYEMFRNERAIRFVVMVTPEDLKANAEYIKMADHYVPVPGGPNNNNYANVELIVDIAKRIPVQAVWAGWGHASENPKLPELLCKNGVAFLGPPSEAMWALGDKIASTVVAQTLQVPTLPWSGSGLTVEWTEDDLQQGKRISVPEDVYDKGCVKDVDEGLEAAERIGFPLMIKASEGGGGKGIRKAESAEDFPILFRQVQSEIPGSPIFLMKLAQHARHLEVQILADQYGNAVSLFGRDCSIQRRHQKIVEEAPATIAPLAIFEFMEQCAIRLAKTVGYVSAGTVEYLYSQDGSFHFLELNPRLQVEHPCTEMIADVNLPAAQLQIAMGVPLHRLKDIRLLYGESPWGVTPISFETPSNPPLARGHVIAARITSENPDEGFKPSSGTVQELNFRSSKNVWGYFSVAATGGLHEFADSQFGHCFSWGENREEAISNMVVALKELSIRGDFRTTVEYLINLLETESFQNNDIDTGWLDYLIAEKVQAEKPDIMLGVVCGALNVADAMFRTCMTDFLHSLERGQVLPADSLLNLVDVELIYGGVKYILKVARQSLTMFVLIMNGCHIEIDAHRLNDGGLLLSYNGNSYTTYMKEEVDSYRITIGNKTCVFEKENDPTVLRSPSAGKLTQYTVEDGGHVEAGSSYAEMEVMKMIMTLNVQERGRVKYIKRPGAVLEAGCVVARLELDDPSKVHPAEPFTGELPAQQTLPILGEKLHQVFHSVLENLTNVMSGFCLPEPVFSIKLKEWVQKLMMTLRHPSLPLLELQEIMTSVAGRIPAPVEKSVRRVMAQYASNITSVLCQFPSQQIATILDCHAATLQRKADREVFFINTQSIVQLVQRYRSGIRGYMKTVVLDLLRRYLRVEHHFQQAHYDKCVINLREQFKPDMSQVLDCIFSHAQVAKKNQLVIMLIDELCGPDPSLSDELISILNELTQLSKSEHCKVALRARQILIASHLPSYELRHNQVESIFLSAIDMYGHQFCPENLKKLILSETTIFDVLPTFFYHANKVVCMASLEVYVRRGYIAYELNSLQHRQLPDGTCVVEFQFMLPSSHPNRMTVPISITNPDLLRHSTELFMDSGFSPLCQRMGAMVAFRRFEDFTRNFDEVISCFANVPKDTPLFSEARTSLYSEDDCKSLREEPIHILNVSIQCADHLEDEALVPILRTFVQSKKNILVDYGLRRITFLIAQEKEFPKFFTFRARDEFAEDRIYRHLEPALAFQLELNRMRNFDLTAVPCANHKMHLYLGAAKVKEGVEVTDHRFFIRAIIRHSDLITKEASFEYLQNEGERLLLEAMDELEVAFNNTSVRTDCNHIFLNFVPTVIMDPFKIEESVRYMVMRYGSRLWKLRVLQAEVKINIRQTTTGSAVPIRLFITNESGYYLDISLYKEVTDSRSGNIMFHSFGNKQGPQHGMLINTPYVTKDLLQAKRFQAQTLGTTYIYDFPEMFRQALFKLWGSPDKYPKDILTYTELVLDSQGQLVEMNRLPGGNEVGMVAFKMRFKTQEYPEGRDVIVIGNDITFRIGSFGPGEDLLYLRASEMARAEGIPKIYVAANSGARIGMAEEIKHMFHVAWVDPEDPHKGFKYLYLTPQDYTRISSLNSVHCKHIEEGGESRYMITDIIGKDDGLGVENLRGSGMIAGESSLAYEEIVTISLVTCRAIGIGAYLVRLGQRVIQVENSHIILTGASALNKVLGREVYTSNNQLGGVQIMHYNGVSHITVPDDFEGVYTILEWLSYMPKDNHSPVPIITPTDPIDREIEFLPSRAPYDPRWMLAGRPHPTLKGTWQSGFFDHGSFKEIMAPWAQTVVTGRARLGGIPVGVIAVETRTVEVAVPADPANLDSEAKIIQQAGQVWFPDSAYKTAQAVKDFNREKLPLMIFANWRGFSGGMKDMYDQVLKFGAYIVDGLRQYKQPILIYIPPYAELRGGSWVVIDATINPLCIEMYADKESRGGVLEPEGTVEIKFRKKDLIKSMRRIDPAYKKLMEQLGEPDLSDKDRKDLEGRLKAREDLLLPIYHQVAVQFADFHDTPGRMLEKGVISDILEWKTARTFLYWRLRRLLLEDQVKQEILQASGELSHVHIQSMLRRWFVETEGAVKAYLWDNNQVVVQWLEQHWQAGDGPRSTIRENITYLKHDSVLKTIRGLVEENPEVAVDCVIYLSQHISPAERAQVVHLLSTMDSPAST
fungal (fACC2), sequence (Q00955 whole entry): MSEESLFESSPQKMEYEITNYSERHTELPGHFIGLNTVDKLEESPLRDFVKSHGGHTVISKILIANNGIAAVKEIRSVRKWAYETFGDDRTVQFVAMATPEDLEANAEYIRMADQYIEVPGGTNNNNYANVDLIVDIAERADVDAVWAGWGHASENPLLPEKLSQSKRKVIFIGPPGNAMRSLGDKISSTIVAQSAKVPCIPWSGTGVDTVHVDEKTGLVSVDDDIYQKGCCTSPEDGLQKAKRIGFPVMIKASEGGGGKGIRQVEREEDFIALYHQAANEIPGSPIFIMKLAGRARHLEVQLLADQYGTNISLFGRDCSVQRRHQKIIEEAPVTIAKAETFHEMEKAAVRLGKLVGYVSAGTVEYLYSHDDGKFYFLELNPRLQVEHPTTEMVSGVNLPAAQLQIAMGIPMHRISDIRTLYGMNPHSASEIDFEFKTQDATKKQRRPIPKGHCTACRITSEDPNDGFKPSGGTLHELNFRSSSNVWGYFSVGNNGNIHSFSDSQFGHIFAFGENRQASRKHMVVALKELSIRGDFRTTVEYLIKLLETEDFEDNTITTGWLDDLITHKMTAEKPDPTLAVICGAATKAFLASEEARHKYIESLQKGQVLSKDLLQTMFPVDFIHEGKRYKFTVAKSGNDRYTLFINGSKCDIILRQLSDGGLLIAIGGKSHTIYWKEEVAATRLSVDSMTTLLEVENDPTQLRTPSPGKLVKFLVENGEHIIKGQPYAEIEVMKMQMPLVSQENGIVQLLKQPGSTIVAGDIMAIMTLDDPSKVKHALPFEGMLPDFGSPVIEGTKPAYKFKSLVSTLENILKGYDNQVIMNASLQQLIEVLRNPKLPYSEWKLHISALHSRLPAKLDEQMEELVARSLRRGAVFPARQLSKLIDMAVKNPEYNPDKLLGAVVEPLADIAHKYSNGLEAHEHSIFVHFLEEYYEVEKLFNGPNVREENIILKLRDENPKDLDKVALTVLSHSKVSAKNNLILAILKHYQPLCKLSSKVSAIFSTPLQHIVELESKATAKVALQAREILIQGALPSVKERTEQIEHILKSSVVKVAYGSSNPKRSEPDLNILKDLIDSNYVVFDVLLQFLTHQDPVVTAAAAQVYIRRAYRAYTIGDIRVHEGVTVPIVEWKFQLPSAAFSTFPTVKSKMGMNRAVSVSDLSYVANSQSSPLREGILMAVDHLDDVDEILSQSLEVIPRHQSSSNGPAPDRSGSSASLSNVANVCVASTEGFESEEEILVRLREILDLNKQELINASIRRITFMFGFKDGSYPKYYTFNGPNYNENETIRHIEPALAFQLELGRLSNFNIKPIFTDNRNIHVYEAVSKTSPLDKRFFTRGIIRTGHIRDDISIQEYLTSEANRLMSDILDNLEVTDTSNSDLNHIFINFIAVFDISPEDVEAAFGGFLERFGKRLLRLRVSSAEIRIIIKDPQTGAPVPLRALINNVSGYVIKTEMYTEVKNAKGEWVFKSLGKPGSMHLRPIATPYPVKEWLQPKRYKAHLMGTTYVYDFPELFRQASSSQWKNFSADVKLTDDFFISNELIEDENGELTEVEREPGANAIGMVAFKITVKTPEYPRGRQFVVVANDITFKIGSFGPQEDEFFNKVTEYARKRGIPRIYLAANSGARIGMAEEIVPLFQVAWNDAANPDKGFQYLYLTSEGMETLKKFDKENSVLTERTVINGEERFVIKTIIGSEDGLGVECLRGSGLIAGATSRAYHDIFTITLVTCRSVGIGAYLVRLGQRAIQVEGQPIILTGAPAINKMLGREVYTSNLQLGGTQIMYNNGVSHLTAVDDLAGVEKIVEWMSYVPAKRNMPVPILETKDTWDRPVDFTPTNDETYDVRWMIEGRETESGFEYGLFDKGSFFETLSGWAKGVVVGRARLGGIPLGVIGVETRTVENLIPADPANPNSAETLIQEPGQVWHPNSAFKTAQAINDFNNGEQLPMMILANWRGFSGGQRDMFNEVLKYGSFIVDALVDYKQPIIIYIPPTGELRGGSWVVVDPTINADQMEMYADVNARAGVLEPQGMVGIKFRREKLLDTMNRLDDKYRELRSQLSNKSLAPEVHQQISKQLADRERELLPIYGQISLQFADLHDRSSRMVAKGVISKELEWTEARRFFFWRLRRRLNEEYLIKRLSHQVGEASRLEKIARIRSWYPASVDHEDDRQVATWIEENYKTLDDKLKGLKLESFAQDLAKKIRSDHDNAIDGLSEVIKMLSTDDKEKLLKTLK

Row | SMILES | IC50 (human (hACC2); Table 2a) [nM] | IC50 (human (hACC2); Table 2b, additional results) [nM] | IC90 (Rhizoctonia solani (Rs); [1]) [µg/mL] | IC90 (Rhizoctonia solani (Rs); [2]) [µg/mL] | IC90 (Rhizoctonia solani (Rs); [3]) [µg/mL] | IC90 (Rhizoctonia solani (Rs); [4]) [µg/mL] | MIC (C. albicans) [µg/mL] | MIC (C. krusei) [µg/mL] | IC50 (fungal (fACC2)) [nM] | MIC (C. parapsilosis) [µg/mL]
1 | COc1ccc(F)cc1[C@H](Cn1c(=O)n(C(C)(C)C(=O)NC(C)C)c(=O)c2c(C)c(-n3nccn3)sc21)OCC(C)C [Compound I-10, (R)-2-(1-(2-(5-fluoro-2-methoxyphenyl)-2-isobutoxyethyl)-5-methyl-2,4-dioxo-6-(2H-1,2,3-triazol-2-yl)-1,4-dihydrothieno[2,3-d]pyrimidin-3(2H)-yl)-N-isopropyl-2-methylpropanamide] | 10 to 40 | 10 to 40 | 0.4 (≈ 0.666 µM) | 0.4 (≈ 0.666 µM) |  |  |  |  |  | 
2 | COc1ccccc1[C@H](Cn1c(=O)n(C(C)(C)C(=O)NCC(C)C)c(=O)c2c(C)c(-n3nccn3)sc21)OC1CCOCC1 [Compound I-13, (R)—N-isobutyl-2-(1-(2-(2-methoxyphenyl)-2-((tetrahydro-2H-pyran-4-yl)oxy)ethyl)-5-methyl-2,4-dioxo-6-(2H-1,2,3-triazol-2-yl)-1,4-dihydrothieno[2,3-d]pyrimidin-3(2H)-yl)-2-methylpropanamide] | 5 to 10 | 5 to 10 |  |  | 0.08 (≈ 0.128 µM) | 0.08 (≈ 0.128 µM) |  |  |  | 
3 | COc1ccccc1[C@H](Cn1c(=O)n(C(C)(C)C(=O)NC(C)C)c(=O)c2c(C)c(-n3nccn3)sc21)OC1CCOCC1 [Compound I-16, (R)—N-isopropyl-2-(1-(2-(2-methoxyphenyl)-2-((tetrahydro-2H-pyran-4-yl)oxy)ethyl)-5-methyl-2,4-dioxo-6-(2H-1,2,3-triazol-2-yl)-1,4-dihydrothieno[2,3-d]pyrimidin-3(2H)-yl)-2-methylpropanamide] | 5 to 10 | 5 to 10 | 0.4 (≈ 0.655 µM) | 0.4 (≈ 0.655 µM) |  |  |  |  |  | 
4 | COc1ccccc1[C@H](Cn1c(=O)n(C(C)(C)C(=O)N2CCCCC2)c(=O)c2c(C)c(-n3nccn3)sc21)OC1CCOCC1 [Compound I-17, (R)-1-(2-(2-methoxyphenyl)-2-((tetrahydro-2H-pyran-4-yl)oxy)ethyl)-5-methyl-3-(2-methyl-1-oxo-1-(piperidin-1-yl)propan-2-yl)-6-(2H-1,2,3-triazol-2-yl)thieno[2,3-d]pyrimidine-2,4(1H,3H)-dione] | 5 to 10 | 5 to 10 | 0.08 (≈ 0.126 µM) | 0.08 (≈ 0.126 µM) |  |  |  |  |  | 
5 | COc1ccccc1[C@H](Cn1c(=O)n(C(C)(C)C(=O)N2CCCC2)c(=O)c2c(C)c(-n3nccn3)sc21)OC1CCOCC1 [Compound I-18, (R)-1-(2-(2-methoxyphenyl)-2-((tetrahydro-2H-pyran-4-yl)oxy)ethyl)-5-methyl-3-(2-methyl-1-oxo-1-(pyrrolidin-1-yl)propan-2-yl)-6-(2H-1,2,3-triazol-2-yl)thieno[2,3-d]pyrimidine-2,4(1H,3H)-dione] | 5 to 10 | 5 to 10 |  |  | 0.08 (≈ 0.128 µM) | 0.08 (≈ 0.128 µM) |  |  |  | 
6 | COc1ccccc1[C@H](Cn1c(=O)n(C(C)(C)C(=O)NC2CCC2)c(=O)c2c(C)c(-n3nccn3)sc21)OC1CCOCC1 [Compound I-20, (R)—N-cyclobutyl-2-(1-(2-(2-methoxyphenyl)-2-((tetrahydro-2H-pyran-4-yl)oxy)ethyl)-5-methyl-2,4-dioxo-6-(2H-1,2,3-triazol-2-yl)-1,4-dihydrothieno[2,3-d]pyrimidin-3(2H)-yl)-2-methylpropanamide] | 5 to 10 | 5 to 10 |  |  | 0.08 (≈ 0.128 µM) | 0.08 (≈ 0.128 µM) |  |  |  | 
7 | COc1ccccc1[C@H](Cn1c(=O)n(C(C)(C)C(=O)NC2CCCCC2)c(=O)c2c(C)c(-n3nccn3)sc21)OC1CCOCC1 [Compound I-21, (R)—N-cyclohexyl-2-(1-(2-(2-methoxyphenyl)-2-((tetra-hydro-2H-pyran-4-yl)oxy)ethyl)-5-methyl-2,4-dioxo-6-(2H-1,2,3-triazol-2-yl)-1,4-dihydrothieno[2,3-d]pyrimidin-3(2H)-yl)-2-methylpropanamide] | 5 to 10 | 5 to 10 | 0.4 (≈ 0.615 µM) | 0.4 (≈ 0.615 µM) |  |  |  |  |  | 
8 | CCNC(=O)C(C)(C)n1c(=O)c2c(C)c(-n3nccn3)sc2n(C[C@H](OC2CCOCC2)c2cc(F)ccc2OC)c1=O [Compound I-22, (R)—N-ethyl-2-(1-(2-(5-fluoro-2-methoxyphenyl)-2-((tetrahydro-2H-pyran-4-yl)oxy)ethyl)-5-methyl-2,4-dioxo-6-(2H-1,2,3-triazol-2-yl)-1,4-dihydrothieno[2,3-d]pyrimidin-3(2H)-yl)-2-methylpropanamide] | 5 to 10 | 5 to 10 |  |  | 0.4 (≈ 0.651 µM) | 0.4 (≈ 0.651 µM) |  |  |  | 
9 | COc1ccc(F)cc1[C@H](Cn1c(=O)n(C(C)(C)C(=O)NC(C)C)c(=O)c2c(C)c(-n3nccn3)sc21)OC1CCOCC1 [Compound I-23, (R)-2-(1-(2-(5-fluoro-2-methoxyphenyl)-2-((tetrahydro-2H-pyran-4-yl)oxy)ethyl)-5-methyl-2,4-dioxo-6-(2H-1,2,3-triazol-2-yl)-1,4-dihydro-thieno[2,3-d]pyrimidin-3(2H)-yl)-N-isopropyl-2-methylpropanamide] | 5 to 10 | 5 to 10 | 0.08 (≈ 0.127 µM) | 0.08 (≈ 0.127 µM) |  |  |  |  |  | 
10 | COc1ccc(F)cc1[C@H](Cn1c(=O)n(C(C)(C)C(=O)N2CCCC2)c(=O)c2c(C)c(-n3nccn3)sc21)OC1CCOCC1 [Compound I-25] | 5 to 10 | 5 to 10 |  |  | 0.08 (≈ 0.125 µM) | 0.08 (≈ 0.125 µM) |  |  |  | 
11 | COc1ccc(F)cc1[C@H](Cn1c(=O)n(CC(=O)N2CCCC2)c(=O)c2c(C)c(-n3nccn3)sc21)OC(C)C [Compound I-36, (R)-1-(2-(5-fluoro-2-methoxyphenyl)-2-isopropoxyethyl)-5-methyl-3-(2-oxo-2-(pyrrolidin-1-yl)ethyl)-6-(2H-1,2,3-triazol-2-yl)thieno[2,3-d]pyrimidine-2,4(1H,3H)-dione] | 1 to 5 | 1 to 5 |  |  | 0.4 (≈ 0.701 µM) | 0.4 (≈ 0.701 µM) |  |  |  | 
12 | COc1ccc(F)cc1[C@H](Cn1c(=O)n([C@@H](C)C(=O)NC(C)C)c(=O)c2c(C)c(-n3nccn3)sc21)OC(C)C [Compound I-37, (S)-2-(1-((R)-2-(5-fluoro-2-methoxyphenyl)-2-isopropoxyethyl)-5-methyl-2,4-dioxo-6-(2H-1,2,3-triazol-2-yl)-1,4-dihydrothieno[2,3-d]pyrimidin-3(2H)-yl)-N-isopropylpropanamide] | 5 to 10 | 5 to 10 | 0.4 (≈ 0.698 µM) | 0.4 (≈ 0.698 µM) |  |  |  |  |  | 
13 | COc1ccc(F)cc1[C@H](Cn1c(=O)n([C@H](C)C(=O)NC(C)C)c(=O)c2c(C)c(-n3nccn3)sc21)OC(C)C [Compound I-38, (R)-2-(1-((R)-2-(5-fluoro-2-methoxyphenyl)-2-isopropoxy-ethyl)-5-methyl-2,4-dioxo-6-(2H-1,2,3-triazol-2-yl)-1,4-dihydrothieno[2,3-d]pyrimidin-3(2H)-yl)-N-isopropylpropanamide] | 5 to 10 | 5 to 10 | 0.4 (≈ 0.698 µM) | 0.4 (≈ 0.698 µM) |  |  |  |  |  | 
14 | COc1ccc(F)cc1[C@H](Cn1c(=O)n(C(C)(C)C(=O)NC(C)C)c(=O)c2c(C)c(-n3nccn3)sc21)OC[C@H](C)C(=O)O [Compound I-273] |  | > 40 |  |  |  |  | 0.25 to 1 (≈ 0.396 to 1.59 µM) | 0.25 to 1 (≈ 0.396 to 1.59 µM) | 0.3 to 1 | 1.01 to 2 (≈ 1.6 to 3.17 µM)
15 | COc1ccc(F)cc1[C@H](Cn1c(=O)n(C(C)(C)C(=O)NC(C)C)c(=O)c2c(C)c(-n3nccn3)sc21)OC[C@@H](C)C(=O)O [Compound I-274] |  | > 40 |  |  |  |  | 0.25 to 1 (≈ 0.396 to 1.59 µM) | 0.25 to 1 (≈ 0.396 to 1.59 µM) | 0.3 to 1 | 1.01 to 2 (≈ 1.6 to 3.17 µM)
